One assay deals with HIV-1. The assay can be described thus: Anti HIV-1 activity (HIV-1 P24 antigen in cell cultures). It is filed as cell-based. The conditions noted are these: 4 days after addition of the reagents.
A further assay concerns HBV. The assay can be described thus: Anti-HBV activity (HBV DNA in cell lysate, spot hybridization). As to conditions: HBV DNA content of the cells, reagent solution changed every 4 days. It is filed as cell-based. The method in brief: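 Monolayer cell cultures treated with compound dilutions (4 wells per concentration), medium with compound refreshed every 4 days. HBV DNA extracted from lysates, quantified by spot hybridisation and autoradiography against standard curves; half-effective concentration derived versus untreated cell control.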

Regarding `COC1C=CC=C(C)C(=O)NC2=CC(=O)C(NCc3ccccn3)=C(CC(C)CC(OC)C(O)C(C)C=C(C)C1OC(N)=O)C2=O` (stereo not shown) [GM-W19], the “Activity of HIV inhibition IC50” value in the assay with HIV-1 is 28.90 µg/mL. The “Activity of HBV inhibition IC50” value in the assay on HBV was 3.4 µg/mL.
On the same counts, the results for `COC1C=CC=C(C)C(=O)NC2=CC(=O)C(NCCCN(C)c3ccccc3)=C(CC(C)CC(OC)C(O)C(C)C=C(C)C1OC(N)=O)C2=O` (stereo not shown) [GM-W45] are under 1.67 µg/mL and 0.32 µg/mL.
On the same counts, the results for `COc1cccc(CCNC2=C3CC(C)CC(OC)C(O)C(C)C=C(C)C(OC(N)=O)C(OC)C=CC=C(C)C(=O)NC(=CC2=O)C3=O)c1` (stereo not shown) [GM-W87] are 0.39 µg/mL and 0.064 µg/mL.
For `CCN1CCCC1CNC1=C2C[C@H](C)C[C@H](OC)[C@H](O)[C@@H](C)/C=C(\C)[C@@H](OC(N)=O)[C@@H](OC)/C=C/C=C(\C)C(=O)NC(=CC1=O)C2=O` (stereo partly shown) [GM-228, 17-(2″-(N-ethylpyrrolidinyl)-methylamino)-17-demethoxy geldanamycin], the “Activity of HIV inhibition IC50” value in the assay on HIV-1 was determined as 0.009 µg/mL. Besides, in the assay on HBV, the “Activity of HBV inhibition IC50, μg/ml” value is listed as 0/01.
Take `COC1C=CC=C(C)C(=O)NC2=CC(=O)C(NCCO)=C(CC(C)CC(OC)C(O)C(C)C=C(C)C1OC(N)=O)C2=O` (stereo not shown) [GM-W42]: in the assay on HIV-1, the “Activity of HIV inhibition IC50” value was found to be 0.091 µg/mL. Moreover, the “Activity of HBV inhibition IC50” value in the assay with HBV turned out to be 0.01 µg/mL.

(Values after US20100311694A1, “Set of Geldanamycin Derivatives and Their Preparation Methods” (Institute of Medicinal Biotechnology, Chinese Academy of …, priority 2008, published 2010).)
